Data published in patent publication US20240050513A1, “COMPOSITION FOR PREVENTING, AMELIORATING, OR TREATING DISEASE CAUSED BY PROTEIN NITRATION […] WITH TERMINAL TYROSINE AS EFFECTIVE COMPONENT” (INDUSTRY-ACADEMIC COOPERATION FOUNDATION GYEONGSANG …, priority 2021, published 2024).

Legend:
[1] = system: renal ischemia-reperfusion C57BL/6 mice; conditions: 100 mg/kg oral, 24 hours of reperfusion
Experimental: Male C57BL/6 mice weighing 23 to 25 g were housed in a germ-free facility with controlled temperature and humidity. They were allowed free access to water and food. […] Renal ischemia was induced by midline laparotomy and occlusion of both renal pedicles using a Müller atraumatic vascular clamp for 25 minutes, followed by removal of the clamp for reperfusion. Control group (sham) underwent the same surgical procedures except the induction of ischemia using clamp. After 24 hours of reperfusion, the mice were sacrificed, and blood was collected from the heart, and the kidney tissue was harvested.
The collected blood was centrifuged at 3,000 rpm for 15 minutes to separate the serum, and the serum creatinine level, an indicator for evaluating kidney damage, was measured using the Jaffe method. The Jaffe method involves measuring the absorbance of the serum sample at 510 nm wavelength after reacting it with picric acid and then terminating the reaction with 60% acetic acid followed by measurement of absorbance, and calculating the concentration of creatinine in mg/mL units based on the difference in absorbance.
The total RNA was extracted from the kidney tissues using the Trizol method, and cDNA was synthesized using the RevertAid Reverse Transcription System (ThermoFisher). Quantitative PCR (qPCR) for inflammatory cytokines (IL-1β, IL-6, and MCP-1) was performed using the iQ SYBR Green Supermix (Bio-Rad) on the CFX Connect Real-Time PCR system (Bio-Rad). The relative amount of the target mRNA, normalized to GAPDH, was analyzed using the […].
The kidney tissue was homogenized in RIPA buffer, and protein quantification was performed using the BCA method. Western blot was then carried out using antibodies against nitrotyrosine and 4-hydroxynonenal (4-HNE), i.e., a product of lipid peroxidation.

catalase (CAT) = test: Hippocampal catalase activity in ischemic stroke model; type: in vivo, Mongolian gerbils; conditions: hippocampus, 200 mg/kg i.p. once, twenty-four hours after reperfusion
Experimental: Three-month-old male Mongolian gerbils were induced with general anesthesia using 3% isoflurane and the anesthesia was maintained with 2.5% isoflurane gas. After sterilizing the neck area, a midline incision was made to expose both common carotid arteries, and microvessel clip was used to block the blood flow for 5 minutes, inducing cerebral ischemia to simulate a stroke. During the application of the microvessel clip, the body temperature was maintained at 37.0±0.5° C., and animals undergoing sham operation were used as the control group.
After inducing ischemia, the animal was, under reperfusion, intraperitoneally administered once with YQ peptide at a dose of 200 mg/kg. Two hours or twenty-four hours after the reperfusion, the animal was anesthetized with avertin. Then, the skull was quickly opened, and the brain was rapidly removed. The hippocampal tissue was collected and rapidly frozen in liquid nitrogen, then stored in a deep freezer. Subsequently, the activities of superoxide dismutase (SOD) and catalase (CAT) were measured by using SOD colorimetric activity kit and CAT colorimetric activity kit, respectively.

3xTG-AD mice = test: Cognitive function (ORT) and hippocampal ROS/RNS in Alzheimer's disease model; type: in vivo, mouse; conditions: 1xYQ diet
Experimental: To analyze the long-term memory capacity of animals following the peptide diet of the present invention, both the object recognition test (ORT) and object location recognition test (OLT) were conducted (FIG. 1). The tests consisted of three phases: habituation, familiarization, and test. During the habituation phase, the animals were acclimated to the testing apparatus for 10 minutes per day over two days. On the third day at the familiarization phase, the animals were allowed to explore two identical objects for 10 minutes. Subsequently, on the fourth day at the test phase, one of the objects was replaced with a novel object, and the animals were allowed to explore for 10 minutes, with result recorded during the initial 5 minutes was used as test data. The object recognition test (ORT) index was calculated using the following formula.
Discrimination index=(N−F)/(N+F) • N: Time spent for exploring new object • F: Time spent for exploring familiar object
The cognitive function of a 2-month-old mouse 3xTG-AD, which is a mouse model of modified Alzheimer's disease gene, and a 2-month-old normal C57BL/6 mouse was examined. After the examination, both were divided into two groups, and they were fed with either a normal diet (ND) or a diet supplemented with tyrosine-containing peptide (1xYQ). […]

[2] = system: glutamatergic neurons of 3xTG-vGluT2-Cre::tdTomato mice; test: sEPSC of glutamatergic neurons in mPFC of fluorescent labeled Alzheimer's disease model; type: in vivo, mouse; conditions: 1xYQ diet from 2 months, measured at 6 to 8 months
Experimental: At two months of age, 3xTG-vGluT2-Cre::tdTomato mice were fed with diet supplemented with tyrosine-containing peptide (1xYQ). At 6 to 8 months of age, the spontaneous excitatory postsynaptic current (sEPSC) was measured to evaluate the activity of glutamatergic neurons. For recording membrane currents, a 200 μm-thick brain cross-section was placed in a recording chamber filled with artificial cerebrospinal fluid at a rate of 1.5 to 2 ml/min, and, under a holding potential of −70 mV, whole-cell voltage clamp recordings were obtained from visually identified glutamatergic neurons in the medial prefrontal cortex (mPFC). Glutamatergic currents were isolated by the addition of picrotoxin (100 μM). All recordings were performed at 30±2° C., and, as the pipette solution, a solution containing 30 mM KCl, 5 mM CaCl2, 10 mM EGTA, 10 mM HEPES, 2 mM MgATP, 0.5 mM Na2GTP, and 5 mM phosphocreatine was used.

Substance: tyrosine-glutamine [YQ]
- lipid peroxidation (4-HNE) in the kidney tissue ([1]; Western blot): significantly reduced
- proteins with nitrated tyrosine in the kidney tissue ([1]; Western blot): significantly reduced
- increase in expression level of IL-1β in kidney tissue ([1]; qPCR): statistically significantly inhibited
- increase in expression level of IL-6 in kidney tissue ([1]; qPCR): statistically significantly inhibited
- increase in expression level of MCP-1 in kidney tissue ([1]; qPCR): statistically significantly inhibited
- CAT activity (catalase (CAT)): activity increases
- cognitive function (ORT) (3xTG-AD mice; dementia animal model 3xTG-AD, 2 to 8 months of age): slight improvement
- ROS/RNS level in the hippocampal tissues (3xTG-AD mice; dementia animal model): decrease
- glutamatergic neuronal activity (sEPSC) [2]: increased
